Measured values reported in paper PMC6389498, “Control of Bacterial Virulence through the Peptide Signature of the Habitat” (Cell Reports, 2019).
Values after ≈ are worked out from the molar mass of the structure shown. Where two headings read alike, the source gives them in different places. Residues, ends and D or L forms follow the SMILES beside them.

Key:
[1] = test system: PrfA-dependent expression (PrfA-regulated hly promoter, luxABCDE reporter); assay: Phly-lux reporter of PrfA-dependent gene expression, opp (oppF::Tn) or ΔgshF mutant; format: cell-based, Listeria monocytogenes; conditions: for Rescue of PrfA phenotype of opp mutant: opp mutant in BHI-Amb, GSH 1 mM, L-cysteine at the CDM concentration
Description: (§1) Listeria were routinely grown in porcine BHI (BD-Difco) and Escherichia coli in Luria-Bertani (LB) media, with 1% agar for solid cultures. For adsorbent-treated BHI agar, 1% (w/v) Amberlite XAD4 resin (Sigma-Aldrich) or 0.5% (w/v) activated charcoal powder (Merck) was added to the medium prior to autoclaving. For fluid Amberlite XAD4-treated BHI cultures (BHI-Amb), the resin was aseptically removed after autoclaving to avoid interference with optical density (OD) readings. Chemically defined CDM is a modification of the improved minimal medium (IMM) of [Phan-Thanh and Gormon (1997)], with the following composition: 6.56 g/L […], 30.96 g/L NaHPO4 7H2O, 0.41 g/L MgSO4, 88 mg/L ferric citrate, 0.1 g/L each of the (L-) amino acids leucine, isoleucine, valine, methionine, arginine, cysteine, histidine and tryptophan, 0.6 g/L L-glutamine, 2.5 mg/L adenine, 0.5 mg/L biotin, 5 mg/L riboflavin, 1 mg/L each of thiamine, pyridoxal, para-aminobenzoic acid, calcium panthothenate and nicotinamide, 5 μg/L thioctic acid and 4.5 g/L glucose. CDM was used freshly prepared from filter-sterilized stock solutions stored at 4°C (except cysteine, glutamine, biotin and ferric citrate solutions, kept at –20°C; and phosphates, MgSO4 and glucose, at room temperature). Antibiotic supplements (μg/mL) were as follows (lower values for Listeria, others for E. coli or both): erythromycin 5 or 250, chloramphenicol 7.5 or 20, spectinomycin 100, carbenicillin 100. All incubations were carried out at 37°C, with 180 rpm orbital shaking for fluid cultures, unless stated otherwise. GSH was kept in reduced state with 2 mM Tris[2-carboxyethyl]phosphine hydrochloride (TCEP) in the stock solution. Chemicals and oligonucleotides were from Sigma-Aldrich unless otherwise indicated.
PrfA-dependent gene expression was quantitatively analyzed throughout the L. monocytogenes growth curve using a chromosomally integrated luxABCDE operon under the control of the PrfA-regulated hly promoter ([Bron et al., 2006]). Overnight bacterial cultures were washed, resuspended in PBS and used to inoculate fresh medium to an initial OD at 600 nm (OD600) ≈0.02-0.05. Triplicate 200-μl aliquots were transferred to opaque 96-well plates with clear bottom (ThermoScientific) and OD600 and luminescence readings taken every 30 min during incubation in an automated microplate reader (FLUOstar Omega, BMG Labtech). Bioluminescence values were normalized to growth at each time point. […] The number of transcripts was calculated by interpolation of threshold cycle (CT) values of cDNA amplifications in a standard regression curve generated from samples of known DNA concentration. […]

[2] = test system: L. monocytogenes P14; format: cell-based, Listeria monocytogenes
[3] = test system: PrfA-dependent expression (PrfA-regulated hly promoter, luxABCDE reporter); assay: Phly-lux reporter of PrfA-dependent gene expression, wild-type P14; format: cell-based, Listeria monocytogenes; conditions: for PrfA downregulation (repression of Phly-lux expression): wild-type P14 in regular CDM (0.8 mM Cys), 1 mM peptide vs no-peptide control, 37°C, maximum normalized luminescence, means of three triplicate experiments
Description: as §1
PrfA-dependent gene expression was quantitatively analyzed throughout the L. monocytogenes growth curve using a chromosomally integrated luxABCDE operon under the control of the PrfA-regulated hly promoter ([Bron et al., 2006]). Overnight bacterial cultures were washed, resuspended in PBS and used to inoculate fresh medium to an initial OD at 600 nm (OD600) ≈0.02-0.05. Triplicate 200-μl aliquots were transferred to opaque 96-well plates with clear bottom (ThermoScientific) and OD600 and luminescence readings taken every 30 min during incubation in an automated microplate reader (FLUOstar Omega, BMG Labtech). Bioluminescence values were normalized to growth at each time point. RT-qPCR transcription analysis was performed on total RNA samples extracted from mid-exponential L. monocytogenes cultures (OD600 ≈0.2-0.3 for BHI media) using RNeasy mini kit (QIAGEN) as previously described ([Deshayes et al., 2012]). The number of transcripts was calculated by interpolation of threshold cycle (CT) values of cDNA amplifications in a standard regression curve generated from samples of known DNA concentration. Expession data were normalized by dividing the number of transcripts of the test gene by the geometric mean of the number of transcripts of the reference housekeeping genes rpoB and ldh ([Deshayes et al., 2012]). See Table S3 for oligonucleotides used.

[4] = target: T1, PrfA (Listeria monocytogenes serovar 1/2a, UniProt P22262); conditions: read-out: Kd for PrfA; ref Reniere et al., 2015; cited from earlier work
[5] = target: T1, PrfA; assay: biochemical; format: binding; design: His tag (inferred from pET28a vector and nickel-column purification); made in house; host or cells: E. coli BL21; conditions: for Binding to PrfA detected by ITC: ITC with purified PrfA, free L-Leu at 1 mM
[6] = test system: L. monocytogenes P14; assay: Fosfomycin MIC; format: cell-based; conditions: Listeria monocytogenes
[7] = target: T2, PrfA^WT binding to the PplcA/hly PrfA box (Listeria monocytogenes serovar 1/2a, UniProt P22262); assay: Biolayer interferometry of PrfA-DNA binding, PrfAWT; format: biochemical; conditions: BLI, PrfA^WT-ligand mixes at 1:100 molar ratio, 50 mM Tris-Cl pH 7.5, 300 mM NaCl, 0.05 Tween 20; at least two experiments
T2 construct: His tag (inferred from pET28a vector and nickel-column purification); made in house; host or cells: E. coli BL21
Description: Bacterial pellets of IPTG-induced cultures of E. coli BL21(pET28aprfA^WT) ([Deshayes et al., 2012]; Table S2) were resuspended in lysis buffer (50 mM Tris pH 7.5, 300 mM NaCl, 20 mM imidazole) and lysed with an EmulsiFlex homogenizer. After affinity chromatography on a HiTrap HP nickel column in an AKTA system (GE Healthcare), PrfA-containing fractions were pooled together, loaded on a HiTrap Heparin HP column and then on a Superdex 75 Gel Filtration column to remove nucleic acid and protein contaminants. The buffer used for the gel filtration and storage was 50 mM Tris pH 7.5, 300 mM NaCl. Fluorescence-based thermal shift assays were performed in a real-time PCR instrument (Bio-Rad) using 25 μL triplicate samples containing 10 μΜ recombinant PrfA, 5 × SyprOrange (Invitrogen) and 1 mM synthetic peptide. Isothermal Titration Calorimetry (ITC) experiments were performed in a GE MicroCal iTC200 system (GE Healthcare). PrfA was changed to 50 mM Tris pH 7.5, 500 mM NaCl buffer and 100 μΜ of PrfA protein injected into the cell. […] Data were analyzed with the inbuilt software of the ITC apparatus using a one-site model. The specific DNA-binding activity of PrfA was measured by biolayer interferometry (BLI) with a FortéBio Octet^RED 96 apparatus using a biotinylated double-stranded oligonucleotide containing the PplcA/hly PrfA box (Table S3). […]

[8] = target: T1, PrfA; format: binding; design: His tag (inferred from pET28a vector and nickel-column purification); made in house; host or cells: E. coli BL21

T1 sequence (P22262 whole entry): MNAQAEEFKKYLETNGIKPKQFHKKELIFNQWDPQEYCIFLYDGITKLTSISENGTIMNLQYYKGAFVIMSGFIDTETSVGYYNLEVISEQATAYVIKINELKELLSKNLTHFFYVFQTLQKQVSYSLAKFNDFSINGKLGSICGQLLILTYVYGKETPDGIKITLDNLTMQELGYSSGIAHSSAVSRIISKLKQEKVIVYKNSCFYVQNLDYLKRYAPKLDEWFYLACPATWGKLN
T2 sequence (P22262 whole entry): as above

With `N[C@@H](CS)C(=O)O` [Cys, L-cysteine] the “Rescue of PrfA phenotype of opp mutant” value [1] was “Rescue of opp mutant”, the “Minimum concentration for eugonic growth” value ([2]; CDM, wild-type and opp bacteria) was “≈ 0.2 mM” and the “Concentrations that inhibit P14 growth” value ([2]; Cys-deplete CDM supplemented with increasing free Cys) was no less than 12800 µM. For the same compound, the “Amount required to completely cancel LL/LLL-mediated repression” value ([3]; wild-type in CDM with limiting Cys (0.1 mM), against fixed 0.25 mM Leu peptide) was 6.4 mM.

For `N[C@@H](CCC(=O)N[C@@H](CS)C(=O)NCC(=O)O)C(=O)O` [GSH, γ-L-Glutamyl-L-cysteinylglycine], the “Rescue of PrfA phenotype of opp mutant” value [1] is given as “fully restored the parental PrfA^+ phenotype”, the “Reversal of PrfA– phenotype of ΔgshF mutant” value ([1]; ΔgshF in BHI-Amb, 1 mM exogenous GSH (even at 8 mM, data not shown)) is given as “did not revert the PrfA^– phenotype” and the Kd [4] is given as roughly 4000 µM. The “Binding to PrfA detected by ITC” value [5] was “undetectable by ITC”.

`CC(C)C[C@H](NC(=O)[C@@H](N)CC(C)C)C(=O)O` [LL, L-leucylleucine] showed a Kd [5] of roughly 25 µM.

In the case of `CC(C)C[C@H](NC(=O)[C@H](CC(C)C)NC(=O)[C@@H](N)CC(C)C)C(=O)O` [LLL] (H-Leu-Leu-Leu-OH), the Kd [5] is reported as roughly 25 µM.

`C[C@@H]1O[C@@H]1P(=O)(O)O` [fosfomycin] showed an MIC [6] of 12 to 32 µg/mL (≈ 86.9 to 232 µM).

For `CC(C)C[C@H](N)C(=O)O` [free Leu, leucine], the “Inhibition of PrfA-DNA binding” value [7] was “not”, the “Binding to PrfA detected by ITC” value [5] was “no binding was detected” and the “PrfA downregulation (repression of Phly-lux expression)” value (“PrfA downregulation” for short) [3] was “not inhibitory”.

With “ASSLLLVG [listerial derived octapeptide, putative peptide pheromone pPplA]” the “Change in melting temperature (Tm) of purified PrfA” value [8] was “significant drop in the Tm” and the “PrfA downregulation” value [3] was 88%.

For KLLLLK [known listerial Opp substrate], the “PrfA downregulation” value [3] was 96%.

In the case of “RGDC [Cys-containing synthetic tetrapeptide transported by Opp]”, the “Growth and PrfA-dependent expression with peptide as Cys source” value ([1]; opp mutant, CDM without Cys supplemented with 0.32 mM RGDC peptide) is reported as “not”, the “Concentration that completely cancelled LL/LLL-mediated repression” value ([3]; wild-type in CDM with limiting Cys (0.1 mM), against fixed 0.25 mM LL or LLL) is reported as 80 µM and the “Growth and PrfA-dependent expression with peptide as Cys source” value ([3]; wild-type, CDM without Cys supplemented with 0.32 mM RGDC peptide) is reported as “promoted growth and PrfA-dependent expression”.

With RKDVY [known listerial Opp substrate] the “PrfA downregulation” value [3] was “no effect”.

With “SQNPYPIV [known listerial Opp substrate]” the “PrfA downregulation” value [3] was 59%.
